System: HIF
Experiment: Assay for inhibitory activity against HIF activity (HIF1 luciferase reporter cell line)
Assay type: cell-based, human
Conditions: Homo sapiens; HEK293 HIF1 reporter cell line, 1% oxygen, 6 hours, luciferase activity 50% inhibited
Text: In order to assay the compounds of the present invention for inhibitory activity against HIF activity, the HIF1 reporter plasmid (Panomics) that is designed to control the expression of luciferase by HIF was employed. The HIF1 reporter plasmid and the pTK-Hyg plasmid (Clontech), which carries a hygromycin resistant gene, were co-transfected into the HEK293 cell line (the Korean Cell Line Bank, KCLB No. 21573), derived from the human kidney, with the aid of Effectene transfection reagent (Qiagen). Then, the cells were cultured for 3 weeks on a medium containing 200 μg/mL hygromycin to select transformants resistant to hygromycin. The cell colonies derived from single cells were transferred to 24-well plates to secure a reporter cell line. The cells were seeded at a density of 4×10^4 cells/well into 96-well plates containing DMEM and incubated for 24 hours before treatment with the compounds of the present invention at a concentration of 25 μM, 5 μM, 1 μM, 200 nM, 40 nM, 8 nM, 1.6 nM, 320 pM, 64 pM, 12.8 pM, 2.56 pM, 512 fM, 102 fM, 20.4 fM, or an amount between any two concentrations above as shown in FIGS. 1A to 1C. Under 1% oxygen condition, the cells were incubated for 6 hours and then, the medium was removed. The cells were lyzed by incubation for 5 min with 100 μL of the mixture of Bright-Glo™ luciferase assay buffer and Bright-Glo™ luciferase assay substrate (Promega). The whole cell lysate was transferred to 96-well, white plates (PerkinElmer) and measured for luminescence using Victor™ 3 (PerkinElmer). From the luminescence measurements, IC50 (a concentration of the compound at which luciferase activity was 50% inhibited) was calculated using the GraphPad Prism™ 4 program. The results are summarized in Table 2 and illustrated in FIGS. 1A to 1C.

Structure (SMILES)	IC50 [nM]
CO/C=C(/C(=O)OC)c1ccccc1COc1cc(C)c(/C=N/OCC2CO2)cc1C (stereo not drawn) [Compound 52, (E)-methyl 2-(2-((2,5-dimethyl-4-((E)-(oxirane-2-ylmethoxyimino)-methyl)phenoxy)methyl)phenyl)-3-methoxyacrylate]	2250
CO/C=C(/C(=O)OC)c1ccccc1COc1ccc(/C=N/OCC2CC2)cc1C [Compound 67, (E)-methyl 2-(2-((4-((E)-(cyclopropylmethoxyimino)methyl)-2-methylphenoxy)methyl)phenyl)-3-methoxyacrylate]	60
CCCO/N=C/c1cc(C)c(OCc2ccccc2/C(=C\OC)C(=O)OC)cc1C [Compound 49, (E)-methyl 2-(2-((2,5-dimethyl-4-((E)-(propoxyimino)methyl)phenoxy)-methyl)phenyl)-3-methoxyacrylate]	10
CO/C=C(/C(=O)OC)c1ccccc1COc1cccc(OCCN2CCOCC2)c1 [Compound 76, (E)-methyl 2-(2-((3-(2-morpholinoethoxy)phenoxy)methyl)phenyl)-3-methoxyacrylate]	1500
CCCO/N=C(\C)c1ccc(OCc2ccccc2/C(=C\OC)C(=O)OC)cc1 [Compound 8, (E)-methyl 2-(2-((4-((E)-1-(propoxyimino)ethyl)phenoxy)methyl)phenyl)-3-methoxyacrylate]	1110
CO/C=C(/C(=O)OC)c1ccccc1COc1cccc(/C=N/OCCN2CCCCC2)c1 [Compound 10, (E)-methyl 3-methoxy-2-(2-((3-((E)-(2-(piperidin-1-yl)ethoxyimino)methyl)phenoxy)methyl)phenyl)acrylate]	7070
CO/C=C(/C(=O)OC)c1ccccc1COc1ccc(/C=N/OCc2ccccc2)cc1C [Compound 33, (E)-methyl 2-(2-((4-((E)-(benzyloxyimino)methyl)-2-methylphenoxy)-methyl)phenyl)-3-methoxyacrylate]	210
CCCO/N=C(\C)c1ccc(OC)c(OCc2ccccc2/C(=C\OC)C(=O)OC)c1 [Compound 42, (E)-methyl 2-(2-((2-methoxy-5-((E)-1-(propoxyimino)ethyl)phenoxy)-methyl)phenyl)-3-methoxyacrylate]	5070
CO/C=C(/C(=O)OC)c1ccccc1COc1ccc(/C=N/OCCc2ccccc2)cc1C [Compound 59, (E)-methyl 2-(2-((2-methyl-4-((E)-(phenylethoxyimino)methyl)phenoxy)-methyl)phenyl)-3-methoxyacrylate]	261
CC/C(=N\N1CCOCC1)c1cc(C)c(OCc2ccccc2/C(=C\OC)C(=O)OC)cc1C [Compound 30, (E)-methyl 2-(2-((2,5-dimethyl-4-((E)-1-(morpholinoimino)propyl)-phenoxy)methyl)phenyl)-3-methoxyacrylate]	4140
CO/C=C(/C(=O)OC)c1ccccc1COc1cc(C)c(/C=N/OCCOc2ccccc2)cc1C [Compound 51, (E)-methyl 2-(2-((2,5-dimethyl-4-((E)-(2-phenoxyethoxyimino)methyl)-phenoxy)methyl)phenyl)-3-methoxyacrylate]	20
CO/C=C(/C(=O)OC)c1ccccc1COc1cc(C)c(-c2cnco2)cc1C [Compound 81, (E)-methyl 3-methoxy-2-(2-((2,5-dimethyl-4-(oxazol-5-yl)phenoxy)-methyl)phenyl)acrylate]	37
CO/C=C(/C(=O)OC)c1ccccc1COc1cccc(OCCO)c1 [Compound 12, (E)-methyl 2-(2-((3-(2-hydroxyethoxy)phenoxy)methyl)phenyl)-3-methoxyacrylate]	5990
CO/C=C(/C(=O)OC)c1ccccc1COc1cccc(OCc2ccncc2)c1 [Compound 27, (E)-methyl 2-(2-((3-(pyridin-4-ylmethoxy)phenoxy)methyl)phenyl)-3-methoxyacrylate]	340
CO/C=C(/C(=O)OC)c1ccccc1COc1cc(F)cc(OCc2ccc([N+](=O)[O-])cc2)c1 [Compound 24, (E)-methyl 2-(2-((3-fluoro-5-(4-nitrobenzyloxy)phenoxy)methyl)phenyl)-3-methoxyacrylate]	640
CO/C=C(/C(=O)OC)c1ccccc1COc1cc(F)cc(OCc2ccccn2)c1 [Compound 23, (E)-methyl 2-(2-((3-fluoro-5-(pyridin-2-ylmethoxy)phenoxy)methyl)-phenyl)-3-methoxyacrylate]	230
CO/C=C(/C(=O)OC)c1ccccc1COc1cc(C)c(/C=N/OCCN2CCCCC2)cc1C [Compound 54, (E)-methyl 2-(2-((2,5-dimethyl-4-((E)-(2-(piperidin-1-yl)ethoxyimino)-methyl)phenoxy)methyl)phenyl)-3-methoxyacrylate]	6630
CO/C=C(/C(=O)OC)c1ccccc1COc1cccc(OCC[N+]2([O-])CCOCC2)c1 [Compound 13, (E)-4-(2-(3-(2-(1,3-dimethoxy-3-oxoprop-1-en-2-yl)benzyloxy)phenoxy)-ethyl)morpholine 4-oxide]	10000
CO/C=C(/C(=O)OC)c1ccccc1COc1cc(/C(C)=N/OCCc2ccccc2)ccc1OC [Compound 44, (E)-methyl 2-(2-((2-methoxy-5-((E)-1-(phenylethoxyimino)ethyl)-phenoxy)methyl)phenyl)-3-methoxyacrylate]	2180
CO/C=C(/C(=O)OC)c1ccccc1COc1cc(C)c(/C(COC)=N/OC)cc1C [Compound 80, (E)-methyl 3-methoxy-2-(2-((4-((Z)-2-methoxy-1-(methoxyimino)ethyl)-2,5-dimethylphenoxy)methyl)phenyl)acrylate]	9
CCCO/N=C(\CC)c1cc(C)c(OCc2ccccc2/C(=C\OC)C(=O)OC)cc1C [Compound 1, (E)-methyl 2-(2-((2,5-dimethyl-4-((E)-1-(propoxyimino)propyl)phenoxy)-methyl)phenyl)-3-methoxyacrylate]	1
CO/C=C(/C(=O)OC)c1ccccc1COc1cc(C=O)ccc1OC [Compound 6, (E)-methyl 2-(2-((5-formyl-2-methoxyphenoxy)methyl)phenyl)-3-methoxyacrylate]	14600
CO/C=C(/C(=O)OC)c1ccccc1COc1ccc(/C(C)=N/OCc2ccccc2)cc1OC [Compound 36, (E)-methyl 2-(2-((4-((E)-1-(benzyloxyimino)ethyl)-2-methoxyphenoxy)-methyl)phenyl)-3-methoxyacrylate]	880
CO/C=C(/C(=O)OC)c1ccccc1COc1cc(O)cc(OCc2ccncc2)c1 [Compound 29, (E)-methyl 2-(2-((3-hydroxy-5-(pyridin-4-ylmethoxy)phenoxy)methyl)-phenyl)-3-methoxyacrylate]	11000
CO/C=C(/C(=O)OC)c1ccccc1COc1cc(C)c(-c2ccn(C)n2)cc1C [Compound 82, (E)-methyl 3-methoxy-2-(2-((2,5-dimethyl-4-(1-methyl-1H-pyrazol-3-yl)phenoxy)methyl)phenyl)acrylate]	2
CO/C=C(/C(=O)OC)c1ccccc1COc1ccc(/C(C)=N/O)cc1OC [Compound 34, (E)-methyl 2-(2-((4-((E)-1-(hydroxyimino)ethyl)-2-methoxyphenoxy)-methyl)phenyl)-3-methoxyacrylate]	4480
CO/C=C(/C(=O)OC)c1ccccc1COc1cccc(/C=N/Oc2ccccc2)c1 [Compound 47, (E)-methyl 2-(2-((3-((E)-1-(phenoxyimino)methyl)phenoxy)methyl)-phenyl)-3-methoxyacrylate]	30

Reference: patent publication US8772290B2, “Alpha-arylmethoxyacrylate derivative, preparation method thereof, and pharmaceutical composition containing same” (Oscotech Inc., priority 2010, dated 2014)
